From patent publication US11034725B2, “Compositions and methods for treating cardiovascular disease” (Genentech, Inc., priority 2016, dated 2021)
Like-named read-outs stand apart in the source and are kept apart here. Numbered stars: 1 amine (or outer) side, 2 acyl side, 3 side chain; on linkers, the order of the positions; unused ones are H or OH. Square brackets hold non-standard residues; d marks the D form. Peptide text beside a SMILES is read from it. * marks the point of attachment. Propanoyl(3-(4-MeO-Ph)) = COc1ccc(CCC(=O)*)cc1; Propanoyl(3-(3-pyridyl)) = O=C(CCc1cccnc1)*; Benzoyl(4-Ph) = O=C(c1ccc(-c2ccccc2)cc1)*; X1 = O=C([C@H]1CC[C@@H](c2ccccc2)CC1)*; Desaminotyrosyl = O=C(CCc1ccc(O)cc1)*; X44 = Cn1cc([C@H]2C[C@H]2C(=O)*)cn1; X5 = Cn1cc([C@@H]2C[C@H]2C(=O)*)cn1; Butanoyl(4-Ph) = O=C(CCCc1ccccc1)*; X14 = O=C(CC1CCN([*:1])CC1)[*:2]; hArg = N=C(N)NCCCC[C@H](N)C(=O)O; X3 = O=C(CC1CCN(Cc2ccccn2)CC1)*; X34 = NC(=O)N1CCN(CCC(=O)*)CC1; X22 = O=C(C1CC(Cc2ccccc2)C1)*; X8 = O=C(c1ccc(N2CCOCC2)nc1)*; Suc = O=C(CCC(=O)[*:2])[*:1]; X18 = COc1ccc(OCCC(=O)*)cc1; X29 = Nc1ccc(CCC(=O)*)cc1; Morpholide = C1CN(*)CCO1; X2 = CC(C)(C)CCCC(=O)*; Ms = CS(=O)(=O)*

Assays:
[1] = molecular target: PCSK9 (Homo sapiens, UniProt Q8NBP7); experiment: PCSK9/EGF(A) TR-FRET binding assay; conditions: Table 8E, additional compounds
PCSK9, sequence (Q8NBP7 153-692): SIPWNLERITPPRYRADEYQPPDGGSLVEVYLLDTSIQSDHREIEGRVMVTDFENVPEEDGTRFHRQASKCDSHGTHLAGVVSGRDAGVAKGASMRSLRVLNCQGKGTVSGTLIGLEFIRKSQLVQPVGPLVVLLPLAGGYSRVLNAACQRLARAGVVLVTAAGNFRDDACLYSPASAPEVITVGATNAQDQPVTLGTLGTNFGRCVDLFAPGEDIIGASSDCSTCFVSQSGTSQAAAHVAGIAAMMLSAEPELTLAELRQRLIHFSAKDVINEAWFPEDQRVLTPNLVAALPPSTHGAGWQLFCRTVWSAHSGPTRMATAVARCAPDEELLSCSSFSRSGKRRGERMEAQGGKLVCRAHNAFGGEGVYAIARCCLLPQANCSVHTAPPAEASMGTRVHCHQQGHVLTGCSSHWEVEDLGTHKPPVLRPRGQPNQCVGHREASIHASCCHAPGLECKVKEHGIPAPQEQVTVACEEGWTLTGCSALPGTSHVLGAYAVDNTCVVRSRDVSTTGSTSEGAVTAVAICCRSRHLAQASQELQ
PCSK9, sequence (Q8NBP7 31-152 partner limits assumed): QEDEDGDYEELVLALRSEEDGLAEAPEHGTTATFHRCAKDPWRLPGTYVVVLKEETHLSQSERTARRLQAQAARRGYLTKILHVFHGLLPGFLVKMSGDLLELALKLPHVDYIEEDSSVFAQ

[2] = molecular target: T1, PCSK9Δhelix (Homo sapiens, UniProt Q8NBP7); experiment: PCSK9Δhelix/Ab20 TR-FRET binding assay; conditions: Table 8E, additional compounds
T1 construct: Human PCSK9 construct M1-Q692 with an engineered TEV site (residue deletion Y166, R167); made in house; host or cells: CHO
T1 sequence (Q8NBP7 with tags, fused parts or gaps limits assumed): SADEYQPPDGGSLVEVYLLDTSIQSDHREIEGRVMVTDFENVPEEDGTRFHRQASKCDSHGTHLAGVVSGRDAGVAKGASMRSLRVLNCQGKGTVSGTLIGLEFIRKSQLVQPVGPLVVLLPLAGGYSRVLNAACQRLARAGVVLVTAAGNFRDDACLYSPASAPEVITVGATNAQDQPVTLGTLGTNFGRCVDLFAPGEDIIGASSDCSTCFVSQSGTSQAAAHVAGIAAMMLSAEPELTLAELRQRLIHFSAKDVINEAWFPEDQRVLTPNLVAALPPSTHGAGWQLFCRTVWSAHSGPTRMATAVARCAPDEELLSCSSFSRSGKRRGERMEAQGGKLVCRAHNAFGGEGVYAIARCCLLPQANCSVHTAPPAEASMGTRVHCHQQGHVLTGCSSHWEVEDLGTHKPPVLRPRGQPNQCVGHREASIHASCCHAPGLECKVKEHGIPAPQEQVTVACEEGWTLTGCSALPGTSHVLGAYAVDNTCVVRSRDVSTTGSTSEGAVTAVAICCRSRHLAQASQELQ
T1 sequence (Q8NBP7 31-152 partner limits assumed): as the sequence (Q8NBP7 31-152 partner limits assumed) above

[3] = TR-FRET, read-out: PCSK9/EGF(A) IC50
[4] = TR-FRET, read-out: PCSK9Δhelix/Ab20 IC50

SMILES | IC50 [1, 3] [µM] | IC50 [2, 4] [µM] | IC50 ([1]; PCSK9/EGF(A) IC50, TR-FRET) [µM] | IC50 ([2]; PCSK9Δhelix/Ab20 IC50, TR-FRET) [µM]
CC[C@H](C)[C@H](NC(=O)[C@H](CCCNC(=N)N)NC(=O)[C@@H](NC(=O)[C@H](CC(C)C)NC(=O)[C@H](CC(N)=O)NC(=O)[C@H](Cc1c[nH]c2ccccc12)NC(=O)CCc1ccc(N)cc1)C(C)C)C(=O)NCC(=O)N[C@@H](CC(C)C)C(=O)N[C@H](C(=O)N[C@@H](CCCNC(=N)N)C(N)=O)[C@@H](C)O [Compound 161] (X29-WNLVRIGLTR-NH2) | ≥ 50 | 5 | – | –
CC[C@H](C)[C@H](NC(=O)[C@H](CCCNC(=N)N)NC(=O)[C@@H](NC(=O)[C@H](CC(C)C)NC(=O)[C@H](CC(N)=O)NC(=O)[C@H](Cc1c[nH]c2ccccc12)NC(=O)[C@@H]1C[C@H]1c1cnn(C)c1)C(C)C)C(=O)NCC(=O)N[C@@H](CC(C)C)C(=O)N[C@@H](CC(C)C)C(=O)N[C@@H](CCCNC(=N)N)C(N)=O [Compound 127] (X5-WNLVRIGLLR-NH2) | ≥ 50 | 29 | – | –
CC[C@H](C)[C@H](NC(=O)[C@H](CCCCNC(=N)N)NC(=O)[C@@H](NC(=O)[C@H](CC(C)C)NC(=O)[C@H](CC(N)=O)NC(=O)[C@H](Cc1c[nH]c2ccccc12)NC(=O)CCOc1ccc(OC)cc1)C(C)C)C(=O)NCC(=O)N[C@@H](CC(C)C)C(=O)N[C@@H](CC(C)C)C(=O)N[C@@H](CCCNC(=N)N)C(N)=O [Compound 203] (X18-WNLV[hArg]IGLLR-NH2) | 21 | 1.6 | – | –
CC[C@H](C)[C@H](NC(=O)[C@H](CCCCNC(=N)N)NC(=O)[C@@H](NC(=O)[C@H](CC(C)C)NC(=O)[C@H](CC(N)=O)NC(=O)[C@H](Cc1c[nH]c2ccccc12)NC(=O)CCc1ccc(OC)cc1)C(C)C)C(=O)NCC(=O)N[C@@H](CC(C)C)C(=O)N[C@@H](CC(C)C)C(=O)N[C@@H](CCCNC(=N)N)C(N)=O [Compound 197] ({Propanoyl(3-(4-MeO-Ph))}-WNLV[hArg]IGLLR-NH2) | 0.97 | 0.09 | – | –
CC[C@H](C)[C@H](NC(=O)[C@H](CCCNC(=N)N)NC(=O)[C@@H](NC(=O)[C@H](CC(C)C)NC(=O)[C@H](CC(N)=O)NC(=O)[C@H](Cc1c[nH]c2ccccc12)NC(=O)C1CC(Cc2ccccc2)C1)C(C)C)C(=O)NCC(=O)N[C@@H](CC(C)C)C(=O)N[C@@H](CC(C)C)C(=O)N[C@@H](CCCNC(=N)N)C(N)=O (stereo partly drawn) [Compound 144] (X22-WNLVRIGLLR-NH2) | 9.7 | 4 | – | –
CC[C@H](C)[C@H](NC(=O)[C@H](CCCNC(=N)N)NC(=O)[C@@H](NC(=O)[C@H](CC(C)C)NC(=O)[C@H](CC(N)=O)NC(=O)[C@H](Cc1c[nH]c2ccccc12)NC(=O)CCc1ccc(O)cc1)C(C)C)C(=O)NCC(=O)N[C@@H](CC(C)C)C(=O)N[C@H](C(=O)N[C@@H](CCCNC(=N)N)C(N)=O)[C@@H](C)O [Compound 170] (Desaminotyrosyl-WNLVRIGLTR-NH2) | ≥ 50 | 3.1 | – | –
CC[C@H](C)[C@H](NC(=O)[C@H](CCCNC(=N)N)NC(=O)[C@@H](NC(=O)[C@H](CC(C)C)NC(=O)[C@H](CC(N)=O)NC(=O)[C@H](Cc1c[nH]c2ccccc12)NC(=O)c1ccc(-c2ccccc2)cc1)C(C)C)C(=O)NCC(=O)N[C@@H](CC(C)C)C(=O)N[C@@H](CC(C)C)C(=O)N[C@@H](CCCNC(=N)N)C(N)=O [Compound 145] ({Benzoyl(4-Ph)}-WNLVRIGLLR-NH2) | – | – | 7.3 | 2.2
CC[C@H](C)[C@H](NC(=O)[C@H](CCCNC(=N)N)NC(=O)[C@@H](NC(=O)[C@H](CC(C)C)NC(=O)[C@H](CC(N)=O)NC(=O)[C@H](Cc1c[nH]c2ccccc12)NC(=O)CC1CCN(S(C)(=O)=O)CC1)C(C)C)C(=O)NCC(=O)N[C@@H](CC(C)C)C(=O)N[C@@H](CC(C)C)C(=O)N[C@@H](CCCNC(=N)N)C(N)=O [Compound 133] (Ms-[X14]WNLVRIGLLR-NH2) | ≥ 50 | 17 | – | –
CC[C@H](C)[C@H](NC(=O)[C@H](CCCCNC(=N)N)NC(=O)[C@@H](NC(=O)[C@H](CC(C)C)NC(=O)[C@H](CC(N)=O)NC(=O)[C@H](Cc1c[nH]c2ccccc12)NC(=O)CCC(=O)N1CCOCC1)C(C)C)C(=O)NCC(=O)N[C@@H](CC(C)C)C(=O)N[C@@H](CC(C)C)C(=O)N[C@@H](CCCNC(=N)N)C(N)=O [Compound 194] ({Morpholide-Suc}-WNLV[hArg]IGLLR-NH2) | ≥ 50 | 1.9 | – | –
CC[C@H](C)[C@H](NC(=O)[C@H](CCCCNC(=N)N)NC(=O)[C@@H](NC(=O)[C@H](CC(C)C)NC(=O)[C@H](CC(N)=O)NC(=O)[C@H](Cc1c[nH]c2ccccc12)NC(=O)[C@H]1CC[C@@H](c2ccccc2)CC1)C(C)C)C(=O)NCC(=O)N[C@@H](CC(C)C)C(=O)N[C@@H](CC(C)C)C(=O)N[C@@H](CCCNC(=N)N)C(N)=O [Compound 208] (X1-WNLV[hArg]IGLLR-NH2) | 0.45 | 0.1 | – | –
CC[C@H](C)[C@H](NC(=O)[C@H](CCCNC(=N)N)NC(=O)[C@@H](NC(=O)[C@H](CC(C)C)NC(=O)[C@H](CC(N)=O)NC(=O)[C@H](Cc1c[nH]c2ccccc12)NC(=O)CC1CCN(Cc2ccccn2)CC1)C(C)C)C(=O)NCC(=O)N[C@@H](CC(C)C)C(=O)N[C@@H](CC(C)C)C(=O)N[C@@H](CCCNC(=N)N)C(N)=O [Compound 130] (X3-WNLVRIGLLR-NH2) | ≥ 50 | 8.6 | – | –
CC[C@H](C)[C@H](NC(=O)[C@H](CCCNC(=N)N)NC(=O)[C@@H](NC(=O)[C@H](CC(C)C)NC(=O)[C@H](CC(N)=O)NC(=O)[C@H](Cc1c[nH]c2ccccc12)NC(=O)CCCC(C)(C)C)C(C)C)C(=O)NCC(=O)N[C@@H](CC(C)C)C(=O)N[C@@H](CC(C)C)C(=O)N[C@@H](CCCNC(=N)N)C(N)=O [Compound 148] (X2-WNLVRIGLLR-NH2) | 19 | 11 | – | –
CC[C@H](C)[C@H](NC(=O)[C@H](CCCNC(=N)N)NC(=O)[C@@H](NC(=O)[C@H](CC(C)C)NC(=O)[C@H](CC(N)=O)NC(=O)[C@H](Cc1c[nH]c2ccccc12)NC(=O)[C@@H]1C[C@@H]1c1cnn(C)c1)C(C)C)C(=O)NCC(=O)N[C@@H](CC(C)C)C(=O)N[C@@H](CC(C)C)C(=O)N[C@@H](CCCNC(=N)N)C(N)=O [Compound 135] (X44-WNLVRIGLLR-NH2) | ≥ 50 | 10 | – | –
CC[C@H](C)[C@H](NC(=O)[C@H](CCCNC(=N)N)NC(=O)[C@@H](NC(=O)[C@H](CC(C)C)NC(=O)[C@H](CC(N)=O)NC(=O)[C@H](Cc1c[nH]c2ccccc12)NC(=O)CCN1CCN(C(N)=O)CC1)C(C)C)C(=O)NCC(=O)N[C@@H](CC(C)C)C(=O)N[C@@H](CC(C)C)C(=O)N[C@@H](CCCNC(=N)N)C(N)=O [Compound 131] (X34-WNLVRIGLLR-NH2) | ≥ 50 | 6.7 | – | –
CC[C@H](C)[C@H](NC(=O)[C@H](CCCNC(=N)N)NC(=O)[C@@H](NC(=O)[C@H](CC(C)C)NC(=O)[C@H](CC(N)=O)NC(=O)[C@H](Cc1c[nH]c2ccccc12)NC(=O)CCc1cccnc1)C(C)C)C(=O)NCC(=O)N[C@@H](CC(C)C)C(=O)N[C@H](C(=O)N[C@@H](CCCNC(=N)N)C(N)=O)[C@@H](C)O [Compound 173] ({Propanoyl(3-(3-pyridyl))}-WNLVRIGLTR-NH2) | ≥ 50 | 9.8 | – | –
CC[C@H](C)[C@H](NC(=O)[C@H](CCCCNC(=N)N)NC(=O)[C@@H](NC(=O)[C@H](CC(C)C)NC(=O)[C@H](CC(N)=O)NC(=O)[C@H](Cc1c[nH]c2ccccc12)NC(=O)c1ccc(N2CCOCC2)nc1)C(C)C)C(=O)NCC(=O)N[C@@H](CC(C)C)C(=O)N[C@@H](CC(C)C)C(=O)N[C@@H](CCCNC(=N)N)C(N)=O [Compound 219] (X8-WNLV[hArg]IGLLR-NH2) | 9.9 | 0.68 | – | –
CC[C@H](C)[C@H](NC(=O)[C@H](CCCCNC(=N)N)NC(=O)[C@@H](NC(=O)[C@H](CC(C)C)NC(=O)[C@H](CC(N)=O)NC(=O)[C@H](Cc1c[nH]c2ccccc12)NC(=O)CCc1ccc(O)cc1)C(C)C)C(=O)NCC(=O)N[C@@H](CC(C)C)C(=O)N[C@@H](CC(C)C)C(=O)N[C@@H](CCCNC(=N)N)C(N)=O [Compound 214] (Desaminotyrosyl-WNLV[hArg]IGLLR-NH2) | 3 | 0.21 | – | –
CC[C@H](C)[C@H](NC(=O)[C@H](CCCNC(=N)N)NC(=O)[C@@H](NC(=O)[C@H](CC(C)C)NC(=O)[C@H](CC(N)=O)NC(=O)[C@H](Cc1c[nH]c2ccccc12)NC(=O)c1ccc(N2CCOCC2)nc1)C(C)C)C(=O)NCC(=O)N[C@@H](CC(C)C)C(=O)N[C@H](C(=O)N[C@@H](CCCNC(=N)N)C(N)=O)[C@@H](C)O [Compound 172] (X8-WNLVRIGLTR-NH2) | ≥ 50 | 8.5 | – | –
CC[C@H](C)[C@H](NC(=O)[C@H](CCCCNC(=N)N)NC(=O)[C@@H](NC(=O)[C@H](CC(C)C)NC(=O)[C@H](CC(N)=O)NC(=O)[C@H](Cc1c[nH]c2ccccc12)NC(=O)[C@@H](N)Cc1ccc(O)cc1)C(C)C)C(=O)NCC(=O)N[C@@H](CC(C)C)C(=O)N[C@@H](CC(C)C)C(=O)N[C@@H](CCCNC(=N)N)C(N)=O [Compound 226] (H-YWNLV[hArg]IGLLR-NH2) | 6.2 | 0.35 | – | –
CC[C@H](C)[C@H](NC(=O)[C@H](CCCCNC(=N)N)NC(=O)[C@@H](NC(=O)[C@H](CC(C)C)NC(=O)[C@H](CC(N)=O)NC(=O)[C@H](Cc1c[nH]c2ccccc12)NC(=O)CCCc1ccccc1)C(C)C)C(=O)NCC(=O)N[C@@H](CC(C)C)C(=O)N[C@@H](CC(C)C)C(=O)N[C@@H](CCCNC(=N)N)C(N)=O [Compound 212] ({Butanoyl(4-Ph)}-WNLV[hArg]IGLLR-NH2) | 15 | 1.6 | – | –
CC[C@H](C)[C@H](NC(=O)[C@H](CCCNC(=N)N)NC(=O)[C@@H](NC(=O)[C@H](CC(C)C)NC(=O)[C@H](CC(N)=O)NC(=O)[C@H](Cc1c[nH]c2ccccc12)NC(=O)CCC(=O)N1CCOCC1)C(C)C)C(=O)NCC(=O)N[C@@H](CC(C)C)C(=O)N[C@H](C(=O)N[C@@H](CCCNC(=N)N)C(N)=O)[C@@H](C)O [Compound 167] ({Morpholide-Suc}-WNLVRIGLTR-NH2) | ≥ 50 | 43 | – | –
